Assay results reported in patent US20210308028A1, “Compositions and Methods for Maintaining and Protecting Tissue Integrity and Barrier Function” (Colgate-Palmolive Company, priority 2020, published 2021).

Legend:
[1] = tested on: B11 immortalized human gingival keratinocyte cell line; assay: Paracellular permeability to FITC-dextran (FD-4); type: cell-based; settings: no challenge; over 48 h; FIGS. 7, 10, 13
Method: The ability of test composition samples to enhance epithelial barrier integrity was assessed by monitoring the paracellular transport of FITC-conjugated 4.4-kDa dextran (FD-4; Sigma-Aldrich Canada Ltd.) across the keratinocyte layer. Briefly, B11 cells were cultured on Transwell filters, and FD-4 ([…] in culture medium) was added in the apical compartment in the presence of the test composition under investigation. Fluorescence in the basolateral compartment was measured at 0, 4, 8, 24, and 48 h using a Synergy 2 microplate reader (BioTek Instrument, Winooski, Vt., USA).
Briefly, B11 cells were cultured on Transwell™ filters, and FD-4 (1 mg/mL in culture medium) was added to the apical compartment in the presence of the test compounds. The presence of FD-4 in the basolateral compartment was determined at 0, 2, 6, 24, and 48 h by measuring the fluorescence (RUF; excitation wavelength 495 nm; emission wavelength 525 nm) using a Synergy 2 microplate reader.

[2] = tested on: zonula occludens-1 and occludin in B11 gingival keratinocytes; assay: Immunofluorescent staining of zonula occludens-1 and occludin; type: cell-based, human; settings: no challenge; Example 3, FIGS. 8, 11, 14
Method: (§1) Gingival keratinocytes treated as described above for 12 h were immunostained for zonula occludens-1 and occludin, two tight junction proteins. Briefly, the cells were fixed in 50 mM phosphate-buffered saline (pH 7.2) (PBS) containing 4% paraformaldhehyde for 20 min, permeabilized with 0.1% Triton X-100 for 10 min, and blocked in 3% non-fat milk in 20 mM Tris-HCl (pH 8), 150 mM NaCl, and 0.5% Tween 20 for 40 min. […] After washing with PBS, the cells were then treated with ProLong® Diamond antifade (Life Technologies). The slides were sealed with nail polish and were kept in the dark at 4° C. The localization of tight junction proteins in B11 cells was visualized using an Olympus FSX100 fluorescence microscope and FSX-BSW imaging software (Olympus, Tokyo, Japan). Immunofluorescent staining of tight junction proteins is a qualitative assay.
The localization of the tight junction proteins in B11 cells was visualized using an Olympus FSX100 fluorescence microscope and FSX-BSW imaging software (Olympus, Tokyo, Japan).

[3] = tested on: P. gingivalis collagenase; assay: Proteolytic assay: collagen DQ degradation by P. gingivalis culture supernatant; type: biochemical, Porphyromonas gingivalis; settings: Example 6, FIGS. 35, 38, 41; over 5 hours
Method: To determine the effects of formulations tested on the proteinase activity of P. gingivalis, a 48-h culture was centrifuged at 10 000×g for 10 min. […] The fluorescence corresponding to collagen degradation was monitored using a Synergy 2 microplate reader, with the excitation and emission wavelengths set at 495 nm and 525 nm, respectively. Test compounds or the fluorescent substrate alone were used as controls. For the proteolytic assay, the following ratio was used: 40% P. gingivalis supernatant+40% test compounds+20% DQ collagen. […]
To determine the effects of the Dual Zinc plus Arginine aqueous solution and dentifrice on the proteinase activity of P. gingivalis, a 48-h culture was centrifuged at 10 000×g for 10 min. Assay mixtures containing equal volumes of P. gingivalis culture supernatant, the fluorescent substrate collagen DQ™ (100 μg/mL; Molecular Probes, Eugene, Oreg., USA), and the Dual Zinc […] The fluorescence corresponding to collagen degradation was monitored using a Synergy 2 microplate reader, with the excitation and emission wavelengths set at 495 nm and 525 nm, respectively. Test compounds or the fluorescent substrate alone were used as controls. Leupeptin (1 μM) was used as a positive inhibitory control.

[4] = tested on: hemolytic activity of P. gingivalis; assay: Hemolytic assay with sheep red blood cells; type: cell-based, Porphyromonas gingivalis; settings: Example 6, FIGS. 37, 40, 43; red blood cells from sheep
Method: A hemolytic assay is performed as follows. Fresh sheep red blood cells (Nutri-Bact, Terrebonne, QC, Canada) were harvested from heparinized whole blood by centrifugation (600×g for 5 min), washed three times in phosphate-buffered saline (PBS; pH 7.0), and suspended in PBS to a concentration of 2% (v/v). Equal volumes (1 mL) of red blood cells, P. gingivalis cells (OD660=1.0 in PBS), and two-fold serial dilutions of the Test composition were mixed together. PBS replaced the bacteria in the negative control. Following an incubation at 37° C. for 4 h, the mixtures were incubated at 4° C. for 1 h and were then centrifuged (10 000×g for 5 min) prior to recording the absorbance of the supernatants at 540 nm (A540). 1 ml P. gingivalis+1 ml of red blood cells+1 ml of test compounds used in the hemolysis assay are incubated at 37° C. for to 4 h. All constituents are added at the same time. […]
Fresh sheep red blood cells (Nutri-B act, Terrebonne, QC, Canada) were harvested from heparinized whole blood by centrifugation (600×g for 5 min), washed three times in phosphate-buffered saline (PBS; pH 7.0), and suspended in PBS to a concentration of 2% (v/v). […] Following an incubation at 37° C. for 4 h, the mixtures were incubated at 4° C. for 1 h and were then centrifuged (10 000×g for 5 min) prior to recording the absorbance of the supernatants at 540 nm (A540).

[5] = tested on: occludin and zonula occludens-1 in TNF-α-treated gingival keratinocytes; assay: Immunofluorescence of tight junction proteins with TNF-α challenge; type: cell-based, human; settings: Example 5, FIGS. 26, 33, 34
Method: as §1
Assays exposed cells to either TNFα only or TNFα+test composition. TNFα is known to cause tissue damage. A stock solution of recombinant TNF-α is prepared in sterile distilled water at 100 μg/ml. Thereafter, dilutions are made in keratinocyte culture medium. First dilution is 1/1000 to obtain 100 ng/ml. TNF-α and the test compounds are added simultaneously.

[6] = tested on: P. gingivalis; assay: P. gingivalis invasion / translocation through keratinocyte layer; type: cell-based, Porphyromonas gingivalis; settings: Example 6, FIGS. 36, 39, 42
Method: Assays were performed to determine the extent formulations can inhibit and reduce invasion of cell monolayer by P. gingivalis.
The basolateral and apical compartments were filled with 0.235 mL and 0.075 mL of K-SFM, respectively. Following a 48-h incubation, the conditioned medium was replaced with antibiotic-free K-SFM. To determine the ability of P. gingivalis to penetrate the keratinocyte layer, FITC-labeled bacteria suspended in antibiotic-free K-SFM were added to the apical compartment of the double-chamber system at an MOI of 10^4. […] To evaluate the effect of the Dual Zinc plus Arginine aqueous solution and dentifrice on the invasive capacity of P. gingivalis, the keratinocyte layer was co-incubated with them and the bacteria. The translocation of FITC-labeled bacteria through the keratinocyte barrier was monitored using a Synergy 2 microplate reader by measuring the fluorescence (RUF; excitation wavelength 495 nm; emission wavelength 525 nm) in the medium recovered from the lower chamber following a 24-h incubation in an anaerobic chamber at 37° C.

SMILES	paracellular permeability to FITC-dextran [1]	immunofluorescence of tight junction proteins (Occludin, Zonula Occludens-1) [2]	inhibition of P. gingivalis collagenase activity [3]	inhibition of hemolytic activity of P. gingivalis [4]	TNFα induced cell junction disorganization (immunofluorescence) [5]	invasion of an epithelial cell monolayer by P. gingivalis [6]
O=C([O-])CC(O)(CC(=O)[O-])C(=O)[O-].O=C([O-])CC(O)(CC(=O)[O-])C(=O)[O-].[Zn+2].[Zn+2].[Zn+2] [zinc citrate]	decreased with the increase in concentration of zinc citrate	enhances barrier integrity	inhibits collagenase activity of P. gingivalis in a dose response manner	inhibited P. gingivalis hemolysis	–	–
[O]=[Zn] [zinc oxide]	decreased with the increase in concentration of zinc oxide	enhances barrier integrity	inhibits collagenase activity of P. gingivalis in a dose response manner	inhibited P. gingivalis hemolysis	prevents TNFα induced cell junction disorganization	inhibits invasion of an epithelial cell monolayer
